Experimental data: US6642392B1 (priority 1997, dated 2003)
Where two headings read alike, the source gives them in different places.

How the values were obtained:
Assay type in all cases: in vivo
[1] = test system: Eiysiphe graminis f. sp. tritici; test: Test A: wheat powdery mildew, preventive spray on wheat seedlings; details: for Test A disease control rating (100 = 100% disease control, 0 = no disease control): wheat seedlings sprayed to run-off, inoculated the following day, rating relative to controls, unmarked compounds (standard test rate); for Test A disease control rating: wheat powdery mildew
Outline: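 Preventive test: seedlings inoculated with powdery mildew spores one day after run-off spraying of a suspension. Ratings after 7 days in a 20° C growth chamber express percent disease control versus controls.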

[2] = test system: Puccinia recondita; test: Test B: wheat leaf rust, preventive spray on wheat seedlings; details: for Test B disease control rating (100 = 100% disease control, 0 = no disease control): wheat seedlings sprayed to run-off, inoculated the following day, rating relative to controls, unmarked compounds (standard test rate); for Test B disease control rating: wheat leaf rust
Outline: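 Preventive test: P. recondita spores were applied one day after a run-off spray of compound suspension on wheat seedlings. Plants had 24 h at 20 °C in saturated air plus 6 days in a 20 °C growth chamber. Scoring is % disease control (100 = full) relative to controls.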

[3] = test system: Pyricularia oryzae; details: for Test C disease control rating (100 = 100% disease control, 0 = no disease control): rice seedlings sprayed to run-off, inoculated the following day, rating relative to controls, unmarked compounds (standard test rate); for Test C disease control rating: rice blast
[4] = test system: Phytophthora infestans; details: for Test D disease control rating (100 = 100% disease control, 0 = no disease control): tomato seedlings sprayed to run-off, inoculated the following day, rating relative to controls, unmarked compounds (standard test rate); for Test D disease control rating: tomato late blight
[5] = test system: Botrytis cinerea; test: Test E: gray mold, preventive spray on cucumber seedlings; details: for Test E disease control rating (100 = 100% disease control, 0 = no disease control): cucumber seedlings sprayed to run-off, inoculated the following day, rating relative to controls, unmarked compounds (standard test rate); for Test E disease control rating: gray mold on cucumber
Outline: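 Preventive spray on cucumber seedlings used a suspension (3% acetone, 250 ppm Trem 014), applied to run-off one day before inoculation with Botrytis cinerea spores. Plants were held 48 h at 20° C in saturated air, then 5 days at 20° C. Percent disease control was scored relative to untreated plants.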

[6] = 100 = 100% disease control, 0 = no control relative to controls, unmarked entries (standard test concentration)
[7] = 100 = 100% disease control, 0 = no control, unmarked entries (standard test concentration)

Structure (SMILES) | Test A disease control rating (100 = 100% disease control, 0 = no disease control) [1] [%] | Test B disease control rating (100 = 100% disease control, 0 = no disease control) [2] [%] | Test C disease control rating (100 = 100% disease control, 0 = no disease control) [3] [%] | Test D disease control rating (100 = 100% disease control, 0 = no disease control) [4] [%] | Test E disease control rating (100 = 100% disease control, 0 = no disease control) [5] [%] | Test A disease control rating [1, 6] [%] | Test B disease control rating [2, 7] [%] | Test C disease control rating [3, 7] [%] | Test D disease control rating [4, 7] [%] | Test E disease control rating [5, 7] [%] | further results
CC(COc1cc(OC(F)F)ccc1C#N)NC(=O)C(C#N)C(C)C(C)(C)C (mixture of isomers) [compound 277] | 0 | 0 | 0 | 0 | 0 |  |  |  |  |  | 
CC(COc1cccc(C(F)(F)F)c1C#N)NC(=O)C(C#N)C(C)C(C)(C)C (mixture of isomers) [compound 66] |  |  |  |  |  | 0 | 0 | 0 | 69 | 0 | 
C[C@H](COc1c(Cl)ccc(Cl)c1Cl)NC(=O)C(C#N)C(C)(C)C (single isomer, unassigned) [171a] |  |  |  |  |  | 0 | 0 | 86 | 0 | 0 | 
C[C@H](COc1cccc(C(F)(F)F)c1)NC(=O)C(C#N)C(C)(C)C (single isomer, unassigned) [18b] |  |  |  |  |  | 77 | 0 | 94 | 0 | 0 | 
CC(COc1ccccc1C(F)(F)F)NC(=O)C1(C)CC1(Cl)Cl (mixture of isomers) [compound 312] | 0 | 0 | 0 | 82 | 0 |  |  |  |  |  | 
CC(CCn1cc(Cl)cc1C#N)NC(=O)C(C#N)C(C)C(C)(C)C (mixture of isomers) [compound 74] |  |  |  |  |  | 0 | 86 | 53 | 23 | 0 | 
CCC1(C(=O)NC(C)COc2ccccc2Br)C(C)C1(Cl)Cl (mixture of isomers) [84a] |  |  |  |  |  |  |  |  |  |  | Test A disease control rating ([1]; tested at 40 ppm): 29%; Test B disease control rating ([2]; tested at 40 ppm): 0%; Test C disease control rating ([3]; tested at 40 ppm): 0%; Test D disease control rating ([4]; tested at 40 ppm): 20%; Test E disease control rating ([5]; tested at 40 ppm): 0%
CCC1(C(=O)NC(C)COc2ccc(Cl)c(F)c2)C(C)C1(Cl)Cl (stereo not drawn) [compound 231] | 0 | 0 | 97 | 0 | 93 |  |  |  |  |  | 
CCC1(C(=O)NC(C)COc2c(F)ccc(F)c2F)C(C)C1(Cl)Cl (stereo not drawn) [compound 233] | 62 | 0 | 94 | 9 | 6 |  |  |  |  |  | 
C[C@H](COc1cc(Cl)cc(Cl)c1Cl)NC(=O)C(C#N)C(C)(C)C (single isomer, unassigned) [170b] |  |  |  |  |  | 61 | 68 | 53 | 23 | 95 | 
CC(COc1ccccc1CC#N)NC(=O)C(C#N)C(C)(C)C (mixture of isomers) [compound 16] |  |  |  |  |  | 0 | 0 | 97 | 48 | 0 | 
CCC(=CCNC(=O)C1(CC)C(C)C1(Cl)Cl)c1ccccc1 (stereo not drawn) [compound 269] | 98 | 0 | 94 | 74 | 0 |  |  |  |  |  | 
C#CC(C)(C=C)C(C#N)C(=O)NC(C)COc1cc(F)ccc1F (mixture of isomers) [compound 301] | 62 | 0 | 100 | 24 | 0 |  |  |  |  |  | 
CC(COc1cc(F)c(F)cc1C#N)NC(=O)C(C#N)C(C)(C)C (mixture of isomers) [compound 207] |  |  |  |  |  | 0 | 0 | 0 | 0 | 0 | 
CCC1(C(=O)NC(C)COc2ccc(Cl)cc2F)C(C)C1(Cl)Cl (stereo not drawn) [compound 120] |  |  |  |  |  |  |  |  |  |  | Test A disease control rating ([1]; tested at 40 ppm): 29%; Test B disease control rating ([2]; tested at 40 ppm): 0%; Test C disease control rating ([3]; tested at 40 ppm): 52%; Test D disease control rating ([4]; tested at 40 ppm): 19%; Test E disease control rating ([5]; tested at 40 ppm): 0%
C[C@H](COc1ccccc1)NC(=O)C(C#N)C(C)(C)C (single isomer, unassigned) [1d] |  |  |  |  |  | 92 | 0 | 100 | 0 | 0 | 
CCC1(C(=O)NC(C)COc2ccc(F)cc2Cl)C(C)C1(Cl)Cl (stereo not drawn) [compound 121] |  |  |  |  |  |  |  |  |  |  | Test A disease control rating ([1]; tested at 40 ppm): 71%; Test B disease control rating ([2]; tested at 40 ppm): 0%; Test C disease control rating ([3]; tested at 40 ppm): 53%; Test D disease control rating ([4]; tested at 40 ppm): 0%; Test E disease control rating ([5]; tested at 40 ppm): 0%
C[C@H](COc1ccc(F)cc1Cl)NC(=O)C(C#N)C(C)(C)C (single isomer, unassigned) [37b] |  |  |  |  |  | 77 | 68 | 99 | 96 | 0 | 
